Assay results as given in patent US20240189265A1, “COMPOSITIONS AND TECHNIQUES FOR VAGINAL INSERTION” (Daré Bioscience, Inc., priority 2021, published 2024).

Key:
[1] = Solubility of drug substance in simulated vaginal fluid; assay type: physicochemical; conditions: fassgf or other biorelevant
[2] = Compatibility of Diclofenac Sodium in Gel Formulation 1; assay type: physicochemical; conditions: 2%, 3% gels, viscosity, pH, appearance
From the text: Variation in pH was reported between prototypes but was expected due to the chemical nature of the API.

solubility [1]: ~16 µg/mL
compatibility with the Gel Formulation 1 composition [2]: Compatible
SMILES: O=C(O)Cc1ccccc1Nc1c(Cl)cccc1Cl [Diclofenac Sodium]
